Patent US10899732B2, “Substituted benzamides useful as sodium channel blockers” (GENENTECH, INC., priority 2015, dated 2021)
Structures can show the parent of a compound that is named as a salt.

Assays:
[1] = molecular target: T1, NaV1.5 (Homo sapiens, UniProt Q14524); test: Patch voltage clamp electrophysiology assay (EP), NaV1.5 in HEK-293 cells; type: cell-based; settings: HEK-293, β1 coexpressed, held at -60 mV (inactivated state)
T1 construct: expression vector containing the full-length cDNA coding for the desired human sodium channel α-subunit; expressed in transfected cells; host or cells: HEK-293
Source text: (§1) Electrophysiological Assay (EP) (In Vitro Assay)
(§2) Patch voltage clamp electrophysiology allows for the direct measurement and quantification of block of voltage-gated sodium channels (NaV's), and allows the determination of the time- and voltage-dependence of block which has been interpreted as differential binding to the resting, open, and inactivated states of the sodium channel (Hille, B., Journal of General Physiology (1977), 69: 497-515).
(§3) The following patch voltage clamp electrophysiology studies were performed on representative compounds of the invention using human embryonic kidney cells (HEK), permanently transfected with an expression vector containing the full-length cDNA coding for the desired human sodium channel α-subunit, grown in culture media containing 10% FBS, 1% PSG, and 0.5 mg/mL G418 at 37° C. with 5% CO2. […] NaV1.7 and NaV1.5 cDNAs (NM_002977 and AC137587; SCN5A, respectively) were stably expressed in HEK-293 cells. The β1 subunit was coexpressed in both the NaV1.7 and NaV1.5 cell lines.
(§4) Sodium currents were measured using the patch clamp technique in the whole-cell configuration using either a PatchXpress automated voltage clamp or manually using an Axopatch 200B (Axon Instruments) or Model 2400 (A-M systems) amplifier. The manual voltage clamp protocol was as follows: Borosilicate glass micropipettes were fire-polished to a tip diameter yielding a resistance of 2-4 Mohms in the working solutions. The pipette was filled with a solution comprised of: 5 mM NaCl, 10 mM CsCl, 120 mM CsF, 0.1 mM CaCl2, 2 mM MgCl2, 10 mM HEPES, 10 mM EGTA; and adjusted to pH 7.2 with CsOH. The external solution had the following composition: 140 mM NaCl, 5 mM KCl, 2 mM CaCl2, 1 mM MgCl2, 10 mM HEPES; and adjusted to pH 7.4 with NaOH. In some studies, the external sodium was reduced by equimolar replacement with choline. Osmolarity in the CsF internal and NaCl external solutions was adjusted to 300 mOsm/kg and 310 mOsm/kg with glucose, respectively. All recordings were performed at ambient temperature in a bath chamber with a volume of 150 μL. Control sodium currents were measured in 0.5% DMSO. Controls and representative compounds of the invention were applied to the recording chamber through a 4-pinch or 8-pinch valve bath perfusion system manufactured by ALA Scientific Instruments.
(§5) Currents were recorded at 40 kHz sampling frequency, filtered at […], and stored using a Digidata-1322A analogue/digital interface with the pClamp software (Axon Instruments). Series resistance compensation was applied (60-80%). […] All statistics in this study are given as mean±SD.
(§6) The membrane potential was maintained at a voltage where inactivation of the channel is complete (which was −60 mV for both NaV1.7 and NaV1.5). The voltage is then stepped back to a very negative (Vhold=[…]) voltage for 20 ms and then a test pulse is applied to quantify the compound block. The 20 ms brief repolarization was long enough for compound-free channels to completely recover from fast inactivation, but the compound-bound channels recovered more slowly such that negligible recovery could occur during this interval. The percent decrease in sodium current following wash-on of compound was taken as the percent block of sodium channels.

[2] = molecular target: T2, NaV1.7 (Homo sapiens, UniProt Q15858); test: Patch voltage clamp electrophysiology assay (EP), NaV1.7 in HEK-293 cells; type: cell-based; settings: HEK-293, β1 coexpressed, held at -60 mV (inactivated state)
T2 construct: expression vector containing the full-length cDNA coding for the desired human sodium channel α-subunit; expressed in transfected cells; host or cells: HEK-293
Source text: as §1, §2, §3, §4, §5, §6

[3] = molecular target: T3, hNav1.7 (Homo sapiens, UniProt Q15858); test: Tritiated sulfonamide competitive binding to membranes from cells expressing hNav1.7 and the β1 subunit (LBA); settings: competition with 100 pM [3H]compound, 18 h, room temperature; read-out: Nav1.7 (LBA)
T3 construct: expressed in transfected cells
Experimental: Tritiated Sulfonamide Binding to Membranes Isolated from Cells that Heterologously Express hNav1.7 and the β1 Subunit
Preparation of membranes containing recombinantly expressed sodium channels: Frozen recombinant cell pellets were thawed on ice and diluted to 4 times the cell pellet weight with ice cold 50 mM Tris HCl, pH 7.4 buffer. The cell suspensions were homogenized on ice using a motorized glass dounce homogenizer. Homogenates were further diluted 8.4 times with ice cold 50 mM Tris HCl, pH 7.4 buffer and then centrifuged at 200×g at 4° C. for 15 min. The supernatants were collected and centrifuged at 10000×g at 4° C. for 50 min. The pellets were then re-suspended in 100 mM NaCl, 20 mM Tris HCl, pH 7.4 buffer containing 1% v/v protease inhibitors (Calbiochem) and re-homogenized on ice. The homogenized membranes were then processed through a syringe equipped with a 26 gauge needle. Protein concentrations were determined by Bradford Assay and the membranes were stored at −80° C.
Saturation experiments. A competitive NaV1.7 inhibitor having a methyl group was tritiated. Three tritiums were incorporated in place of methyl hydrogens to generate [^3H]compound. Binding of this radioligand was preformed in 5 mL borosilicate glass test tubes at room temperature. Binding was initiated by adding membranes to increasing concentrations of [^3H]compound in 100 mM NaCl, 20 mM Tris HCl, pH 7.4 buffer containing 0.01% w/v bovine serum albumin (BSA) for 18 h. Non-specific binding was determined in the presence of 1 μM unlabelled compound. After 18 h, the reactants were filtered through GF/C glass fiber filters presoaked in 0.5% w/v polyethylene imine. Filters were washed with 15 mL ice cold 100 mM NaCl, 20 mM Tris HCl, pH 7.4 buffer containing 0.25% BSA to separate bound from free ligand. [^3H]compound bound to filters was quantified by liquid scintillation counting.
Binding reactions were performed in 96-well polypropylene plates at room temperature for 18 h. In 360 μL, membranes were incubated with 100 pM [^3H]compound and increasing concentrations of Test Compound. Non-specific binding was defined in the presence of 1 μM unlabelled compound. Reactions were transferred and filtered through 96-well glass fiber/C filter plates presoaked with 0.5% polyethylene imine. The filtered reactions were washed 5 times with 200 μL ice cold buffer containing 0.25% BSA. Bound radioactivity was determined by liquid scintillation counting.
Data Analysis: For saturation experiments, non-specific binding was subtracted from total binding to provide specific binding and these values were recalculated in terms of pmol ligand bound per mg protein. Saturation curves were constructed and dissociation constants were calculated using the single site ligand binding model: Beq=(Bmax*X)/(X+Kd), where Beq is the amount of ligand bound at equilibrium, Bmax is the maximum receptor density, Kd is the dissociation constant for the ligand, and X is the free ligand concentration. For competition studies percent inhibition was determined and IC50 values were calculated using a 4 parameter logistic model (% inhibition=(A+((B−A)/(1+((x/C)^D)))) using XLfit, where A and B are the maximal and minimum inhibition respectively, C is the IC50 concentration and D is the (Hill) slope.

T1 sequence (Q14524 whole entry): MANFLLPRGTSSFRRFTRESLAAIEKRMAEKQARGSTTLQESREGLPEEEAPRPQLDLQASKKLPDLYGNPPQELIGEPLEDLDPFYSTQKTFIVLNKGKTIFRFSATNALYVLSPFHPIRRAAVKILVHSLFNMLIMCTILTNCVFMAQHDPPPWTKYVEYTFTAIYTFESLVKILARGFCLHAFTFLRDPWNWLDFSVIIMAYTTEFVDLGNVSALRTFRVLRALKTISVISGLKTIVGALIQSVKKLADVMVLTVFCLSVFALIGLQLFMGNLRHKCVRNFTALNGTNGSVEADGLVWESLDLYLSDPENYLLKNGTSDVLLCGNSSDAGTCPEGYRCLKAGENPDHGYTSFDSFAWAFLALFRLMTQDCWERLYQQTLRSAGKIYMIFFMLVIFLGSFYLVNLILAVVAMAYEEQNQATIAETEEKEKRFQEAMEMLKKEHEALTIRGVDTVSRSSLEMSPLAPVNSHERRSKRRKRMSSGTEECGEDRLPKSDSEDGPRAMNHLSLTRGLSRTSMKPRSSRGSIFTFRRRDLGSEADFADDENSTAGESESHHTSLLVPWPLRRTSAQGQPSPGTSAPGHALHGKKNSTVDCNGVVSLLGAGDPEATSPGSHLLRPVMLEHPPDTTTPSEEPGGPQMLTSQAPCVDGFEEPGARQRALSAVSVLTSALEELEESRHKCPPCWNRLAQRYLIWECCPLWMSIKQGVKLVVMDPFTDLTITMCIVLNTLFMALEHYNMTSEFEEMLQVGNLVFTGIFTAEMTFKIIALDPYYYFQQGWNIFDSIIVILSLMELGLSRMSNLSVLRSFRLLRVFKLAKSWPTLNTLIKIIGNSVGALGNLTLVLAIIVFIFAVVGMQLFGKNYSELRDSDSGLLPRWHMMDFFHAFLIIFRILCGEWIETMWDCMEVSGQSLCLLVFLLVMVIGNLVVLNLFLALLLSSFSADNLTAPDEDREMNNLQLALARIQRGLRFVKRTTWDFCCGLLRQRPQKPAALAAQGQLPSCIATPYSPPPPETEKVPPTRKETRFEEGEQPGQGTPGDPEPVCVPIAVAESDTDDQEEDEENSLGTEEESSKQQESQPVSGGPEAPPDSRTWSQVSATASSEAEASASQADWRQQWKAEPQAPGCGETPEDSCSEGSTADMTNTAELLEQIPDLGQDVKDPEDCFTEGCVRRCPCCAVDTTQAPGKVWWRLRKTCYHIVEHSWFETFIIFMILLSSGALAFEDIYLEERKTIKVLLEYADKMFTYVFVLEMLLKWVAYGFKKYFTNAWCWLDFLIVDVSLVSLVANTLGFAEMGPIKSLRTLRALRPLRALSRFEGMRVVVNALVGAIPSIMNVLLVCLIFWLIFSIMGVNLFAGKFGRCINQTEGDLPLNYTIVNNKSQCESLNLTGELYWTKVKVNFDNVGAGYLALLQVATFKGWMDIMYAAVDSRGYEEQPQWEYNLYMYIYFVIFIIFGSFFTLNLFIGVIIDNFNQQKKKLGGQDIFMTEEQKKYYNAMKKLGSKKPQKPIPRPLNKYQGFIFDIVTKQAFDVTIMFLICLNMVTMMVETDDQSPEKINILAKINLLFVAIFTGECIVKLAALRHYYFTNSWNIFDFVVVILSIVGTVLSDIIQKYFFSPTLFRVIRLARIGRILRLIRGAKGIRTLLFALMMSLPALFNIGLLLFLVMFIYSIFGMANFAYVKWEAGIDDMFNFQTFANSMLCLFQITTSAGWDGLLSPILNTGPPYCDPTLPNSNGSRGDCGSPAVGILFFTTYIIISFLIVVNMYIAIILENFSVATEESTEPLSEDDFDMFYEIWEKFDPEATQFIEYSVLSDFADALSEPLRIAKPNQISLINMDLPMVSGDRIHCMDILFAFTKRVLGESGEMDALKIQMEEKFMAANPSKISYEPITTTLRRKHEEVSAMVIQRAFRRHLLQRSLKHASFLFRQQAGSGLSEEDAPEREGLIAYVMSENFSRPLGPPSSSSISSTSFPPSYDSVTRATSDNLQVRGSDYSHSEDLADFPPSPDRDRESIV
T3 sequence (Q15858 1-1977 isoform Q15858-3): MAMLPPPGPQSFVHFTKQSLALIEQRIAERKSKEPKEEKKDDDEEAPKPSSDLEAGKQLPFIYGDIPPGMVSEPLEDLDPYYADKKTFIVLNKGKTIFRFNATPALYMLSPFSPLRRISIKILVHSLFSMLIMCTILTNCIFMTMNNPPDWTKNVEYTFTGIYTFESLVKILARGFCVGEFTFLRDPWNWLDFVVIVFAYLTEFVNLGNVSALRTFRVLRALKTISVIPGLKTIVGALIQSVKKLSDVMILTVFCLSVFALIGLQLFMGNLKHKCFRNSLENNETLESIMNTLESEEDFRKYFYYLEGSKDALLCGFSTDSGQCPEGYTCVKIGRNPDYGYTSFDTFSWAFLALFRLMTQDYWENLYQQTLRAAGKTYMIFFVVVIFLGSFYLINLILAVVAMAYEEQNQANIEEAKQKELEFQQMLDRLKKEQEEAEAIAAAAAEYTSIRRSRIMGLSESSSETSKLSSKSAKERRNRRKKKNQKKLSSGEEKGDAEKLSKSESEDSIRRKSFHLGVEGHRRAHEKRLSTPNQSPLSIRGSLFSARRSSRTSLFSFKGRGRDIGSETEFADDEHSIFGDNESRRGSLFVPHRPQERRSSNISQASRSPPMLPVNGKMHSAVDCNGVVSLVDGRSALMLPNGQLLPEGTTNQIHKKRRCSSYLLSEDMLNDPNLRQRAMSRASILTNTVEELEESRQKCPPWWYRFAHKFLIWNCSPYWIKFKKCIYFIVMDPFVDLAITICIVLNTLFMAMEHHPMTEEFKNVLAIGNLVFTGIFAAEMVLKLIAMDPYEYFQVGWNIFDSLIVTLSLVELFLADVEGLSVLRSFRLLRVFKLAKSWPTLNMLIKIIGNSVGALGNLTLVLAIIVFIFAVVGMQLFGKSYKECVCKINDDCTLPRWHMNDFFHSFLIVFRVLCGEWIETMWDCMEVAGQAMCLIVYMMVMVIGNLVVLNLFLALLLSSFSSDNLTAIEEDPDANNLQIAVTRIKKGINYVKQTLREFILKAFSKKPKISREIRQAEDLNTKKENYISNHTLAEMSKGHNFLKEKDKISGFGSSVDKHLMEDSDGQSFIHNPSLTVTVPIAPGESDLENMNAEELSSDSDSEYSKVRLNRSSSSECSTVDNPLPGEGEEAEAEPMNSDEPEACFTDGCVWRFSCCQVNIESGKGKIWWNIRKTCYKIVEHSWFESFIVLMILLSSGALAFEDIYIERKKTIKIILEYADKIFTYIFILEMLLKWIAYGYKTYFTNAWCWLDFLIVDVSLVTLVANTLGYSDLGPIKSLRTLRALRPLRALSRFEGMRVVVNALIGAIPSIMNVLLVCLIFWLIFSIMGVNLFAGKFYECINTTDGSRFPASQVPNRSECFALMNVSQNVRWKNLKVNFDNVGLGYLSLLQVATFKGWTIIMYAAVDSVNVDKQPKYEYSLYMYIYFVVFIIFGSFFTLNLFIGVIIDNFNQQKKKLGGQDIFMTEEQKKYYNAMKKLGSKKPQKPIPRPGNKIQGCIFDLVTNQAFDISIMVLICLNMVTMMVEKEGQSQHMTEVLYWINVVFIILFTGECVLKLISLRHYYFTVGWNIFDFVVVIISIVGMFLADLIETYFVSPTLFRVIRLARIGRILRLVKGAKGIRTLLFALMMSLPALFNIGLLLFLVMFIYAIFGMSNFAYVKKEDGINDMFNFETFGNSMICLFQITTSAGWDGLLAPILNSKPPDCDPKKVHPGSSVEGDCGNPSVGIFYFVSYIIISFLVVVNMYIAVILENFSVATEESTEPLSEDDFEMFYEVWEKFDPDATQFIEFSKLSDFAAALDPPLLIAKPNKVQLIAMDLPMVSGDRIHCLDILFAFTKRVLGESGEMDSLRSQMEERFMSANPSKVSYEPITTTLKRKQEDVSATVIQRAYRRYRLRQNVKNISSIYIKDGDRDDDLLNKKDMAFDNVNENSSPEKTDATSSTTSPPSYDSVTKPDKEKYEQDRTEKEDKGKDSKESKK
T3 sequence (Q07699 19-218 partner): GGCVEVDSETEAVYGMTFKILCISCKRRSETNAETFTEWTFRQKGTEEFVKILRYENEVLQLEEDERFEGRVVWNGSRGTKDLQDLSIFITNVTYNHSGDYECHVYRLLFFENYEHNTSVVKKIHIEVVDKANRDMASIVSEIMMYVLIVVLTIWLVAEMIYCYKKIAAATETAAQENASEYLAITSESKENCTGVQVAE
T2 sequence (Q15858 1-1977 isoform Q15858-3): as the sequence (Q15858 1-1977 isoform Q15858-3) above
T2 sequence (Q07699 19-218 partner): as the sequence (Q07699 19-218 partner) above

Row | SMILES | IC50 [2] [nM] | IC50 [3] [nM] | IC50 [1] [nM] | IC50 ([1]; human, pH 7.4) [nM]
1 | Cc1nn(C2CCN(Cc3cc(C(F)(F)F)cc(Cl)c3F)CC2)c2cc(F)c(C(=O)NS(=O)(=O)N3CCC3)cc12 [Example 3, N-(azetidin-1-ylsulfonyl)-1-(1-(3-chloro-2-fluoro-5-(trifluoromethyl)benzyl)piperidin-4-yl)-6-fluoro-3-methyl-1H-indazole-5-carboxamide 2,2,2-trifluoroacetate] | 250 | 33 | 7400 | 
2 | Cc1nn([C@@H]2CCN([C@H](C)c3cc(Cl)cc(OC(F)(F)F)c3)C2)c2cc(F)c(C(=O)NS(=O)(=O)C3CC3)cc12 [Example 22, 1-((R)-1-((R)-1-(3-chloro-5-(trifluoromethoxy)phenyl)ethyl)pyrrolidin-3-yl)-N-(cyclopropylsulfonyl)-6-fluoro-3-methyl-1H-indazole-5-carboxamide, trifluoroacetic acid salt] | 110 | 20 | 4800 | 
3 | Cc1nn(CC2CN(C(c3ccccc3)c3ccccc3)C2)c2cc(F)c(C(=O)NS(C)(=O)=O)cc12 [Example 23, 1-((1-benzhydrylazetidin-3-yl)methyl)-6-fluoro-3-methyl-N-(methylsulfonyl)-1H-indazole-5-carboxamide] | 550 | 280 |  | ≥ 30000
4 | Cc1nn(C2CCN(Cc3cc(Cl)cc(OC(F)(F)F)c3)CC2)c2cc(F)c(C(=O)NS(C)(=O)=O)cc12 [Example 4, 1-(1-(3-chloro-5-(trifluoromethoxy)benzyl)piperidin-4-yl)-6-fluoro-3-methyl-N-(methylsulfonyl)-1H-indazole-5-carboxamide 2,2,2-trifluoroacetate] | 420 | 24 | 26000 | 
5 | Cc1nn(C23CC4CC(CC(C4)C2)C3)c2cc(F)c(C(=O)NS(C)(=O)=O)cc12 [Example 36, 1-((3s,5s,7s)-adamantan-1-yl)-6-fluoro-3-methyl-N-(methylsulfonyl)-1H-indazole-5-carboxamide] | 3100 | 370 |  | ≥ 30000
6 | Cc1nn(C2CCN(Cc3cc(Cl)cc(Cl)c3)CC2)c2cc(F)c(C(=O)NS(=O)(=O)C3CC3)cc12 [Example 6, N-(cyclopropylsulfonyl)-1-(1-(3,5-dichlorobenzyl)piperidin-4-yl)-6-fluoro-3-methyl-1H-indazole-5-carboxamide 2,2,2-trifluoroacetate] | 72 | 14 | 7000 | 
7 | Cc1nn(C2CCN(Cc3cc(C(F)(F)F)cc(Cl)c3F)CC2)c2cc(F)c(C(=O)NS(=O)(=O)C3CC3)cc12 [Example 2, 1-(1-(3-chloro-2-fluoro-5-(trifluoromethyl)benzyl)piperidin-4-yl)-N-(cyclopropylsulfonyl)-6-fluoro-3-methyl-1H-indazole-5-carboxamide 2,2,2-trifluoroacetate] | 86 | 13 | 4900 | 
8 | Cc1nn(C2CCN([C@H](C)c3cc(Cl)cc(Cl)c3)CC2)c2cc(F)c(C(=O)NS(=O)(=O)C3CC3)cc12 [Example 9, (R)-N-(cyclopropylsulfonyl)-1-(1-(1-(3,5-dichlorophenyl)ethyl)piperidin-4-yl)-6-fluoro-3-methyl-1H-indazole-5-carboxamide] | 46 | 6 | 8300 | 

Further lines, with some results ahead:

Row | IC50 [2] [nM] | IC50 [3] [nM] | SMILES | IC50 [1] [nM] | IC50 ([1]; human, pH 7.4) [nM]
9 | 39 | 8 | Cc1nn(-c2cnc(OCC(C)C)c(Cl)c2)c2cc(F)c(C(=O)NS(C)(=O)=O)cc12 [Example 39, 1-(5-chloro-6-isobutbxypyridin-3-yl)-6-fluoro-3-methyl-N-(methylsulfonyl)-1H-indazole-5-carboxamide] |  | ≥ 30000
10 | 87 | 48 | Cc1nn(C2CN(C(c3ccccc3)c3ccccc3)C2)c2cc(F)c(C(=O)NS(C)(=O)=O)cc12 [Example 24, 1-(1-benzhydrylazetidin-3-yl)-6-fluoro-3-methyl-N-(methylsulfonyl)-1H-indazole-5-carboxamide] | 8600 | 
11 | 41 | 12 | Cc1nn([C@@H]2CCN([C@@H](C)c3cc(Cl)cc(Cl)c3)C2)c2cc(F)c(C(=O)NS(=O)(=O)C3CC3)cc12 [Example 19, N-(cyclopropylsulfonyl)-1-((R)-1-((S)-1-(3,5-dichlorophenyl)ethyl)pyrrolidin-3-yl)-6-fluoro-3-methyl-1H-indazole-5-carboxamide, trifluoroacetic acid salt] | 6300 | 
12 | 32 | 5 | Cc1nn([C@@H]2CCN(Cc3cc(Cl)ccc3C(F)(F)F)C2)c2cc(F)c(C(=O)NS(=O)(=O)C3CC3)cc12 [Example 12, (R)-1-(1-(5-chloro-2-(trifluoromethyl)benzyl)pyrrolidin-3-yl)-N-(cyclopropylsulfonyl)-6-fluoro-3-methyl-1H-indazole-5-carboxamide 2,2,2-trifluoroacetate] | 510 | 
13 | 23 | 13 | Cc1nn([C@@H]2CCN(Cc3cc(Cl)cc(OC(F)(F)F)c3)C2)c2cc(F)c(C(=O)NS(=O)(=O)C3CC3)cc12 [Example 11, (R)-1-(1-(3-chloro-5-(trifluoromethoxy)benzyl)pyrrolidin-3-yl)-N-(cyclopropylsulfonyl)-6-fluoro-3-methyl-1H-indazole-5-carboxamide 2,2,2-trifluoroacetate] | 800 | 
14 | 4000 | 1500 | Cc1nn([C@@H]2CCN(C(=O)c3cc(Cl)cc(Cl)c3)C2)c2cc(F)c(C(=O)NS(=O)(=O)C3CC3)cc12 [Example 21, (R)-N-(cyclopropylsulfonyl)-1-(1-(3,5-dichlorobenzoyl)pyrrolidin-3-yl)-6-fluoro-3-methyl-1H-indazole-5-carboxamide] |  | ≥ 30000
